In US20240189269A1, “PHARMACEUTICAL COMPOSITION FOR SUPPRESSING TMPRSS2 EXPRESSION” (Tokyo Institute of Technology, priority 2021, published 2024):

Test system: ACE2
Assay: Western blot analysis of amount of ACE2 protein expressed in HepG2 cells
Type: cell-based, human
Details: compared to control (untreated)
Description: (i) Human liver cancer-derived cell strain HepG2 was cultured for 2 days with Dulbecco's modified Eagle medium (DMEM) comprising 10% fetal bovine serum (FBS) under 5% CO2.
(ii) After 2 days, 5-aminolevulinic acid hydrochloride salt (ALA) was supplemented to the DMEM comprising FBS to a final concentration of 1 mM, and the cells of (i) were cultured in said medium at 37° C. for 48 hours. Note that those without any supplements was set as the control.
(iii) After 48 hours, the cell supernatant was discarded, the cells were washed with PBS, and then Lysis buffer A (+) (50 mM Tris-HCl (pH 7.4), 20 mM N-methylmaleimide, 1 mM DTT, 1% (v/v) Triton X-100, and Protease inhibitor cocktail) was added, and the cell lysate was collected. Homogenization and centrifugation (3,000 rpm, 10 minutes, 4 °C) were then performed, and the residue was removed. A part of the cell lysate collected was quantified for proteins with the Bradford method, and the remainder was mixed with SDS sample buffer (50 mM Tris-HC1, pH 6.8, 2% SDS, 2.5% mercaptoethanol, 10% glycerol, 0.01% bromophenol blue), and stored frozen at −30° C. The prepared sample was subjected to 7.5% SDS-polyacrylamide electrophoresis, the 7.5% SDS-polyacrylamide gel after electrophoresis was transferred to a membrane, and the transfer was confirmed with
Ponceau S solution. After the transfer was confirmed, Western blot analysis employing rabbit anti-human ACE2 antibody (Abcom, ab108252) and HRP-labeled anti-rabbit IgG secondary antibody (Cell Signaling Technology, 7074S) was performed by conventional means.
As internal standards, each sample was subjected to 7.5% SDS-polyacrylamide electrophoresis, the 7.5% SDS-polyacrylamide gel after electrophoresis was transferred to a membrane, and the transfer was confirmed with Ponceau S solution. After the transfer was confirmed, Western blot analysis employing mouse anti-human actin antibody (MP biomedicals, 691001) and HRP-labeled anti-mouse IgG secondary antibody (Cell Signaling Technology, 7076S) was performed by conventional means. […]

Compound | amount of ACE2 protein expressed (Experiment 2, SFC only 0.5 mM) | amount of ACE2 protein expressed (Experiment 1, ALA 1 mM, 48 hours) | amount of ACE2 protein expressed (Experiment 2, ALA 1 mM)
sodium ferrous citrate [SFC] | no reduction | – | –
Cl.NCC(=O)CCC(=O)O [ALA, 5-aminolevulinic acid hydrochloride salt] | – | significantly reduced | reduced
